From US7713964B2, “Methods for treating asthmatic conditions” (Wyeth LLC, priority 2001, dated 2010)

Legend:
cPLA2 = target: T1, cPLA2 (Homo sapiens, UniProt P47712); assay: Coumarine Assay (hydrolysis of 7-hydroxycoumarinyl 6-heptenoate by cPLA2, fluorometric); format: biochemical; details: 60 μM 7-hydroxycoumarinyl 6-heptenoate substrate, 4 μg cPLA2, pH 7.5; excitation 360 nm, emission 460 nm; read-out: Coumarin IC50
T1 sequence (P47712 1-749): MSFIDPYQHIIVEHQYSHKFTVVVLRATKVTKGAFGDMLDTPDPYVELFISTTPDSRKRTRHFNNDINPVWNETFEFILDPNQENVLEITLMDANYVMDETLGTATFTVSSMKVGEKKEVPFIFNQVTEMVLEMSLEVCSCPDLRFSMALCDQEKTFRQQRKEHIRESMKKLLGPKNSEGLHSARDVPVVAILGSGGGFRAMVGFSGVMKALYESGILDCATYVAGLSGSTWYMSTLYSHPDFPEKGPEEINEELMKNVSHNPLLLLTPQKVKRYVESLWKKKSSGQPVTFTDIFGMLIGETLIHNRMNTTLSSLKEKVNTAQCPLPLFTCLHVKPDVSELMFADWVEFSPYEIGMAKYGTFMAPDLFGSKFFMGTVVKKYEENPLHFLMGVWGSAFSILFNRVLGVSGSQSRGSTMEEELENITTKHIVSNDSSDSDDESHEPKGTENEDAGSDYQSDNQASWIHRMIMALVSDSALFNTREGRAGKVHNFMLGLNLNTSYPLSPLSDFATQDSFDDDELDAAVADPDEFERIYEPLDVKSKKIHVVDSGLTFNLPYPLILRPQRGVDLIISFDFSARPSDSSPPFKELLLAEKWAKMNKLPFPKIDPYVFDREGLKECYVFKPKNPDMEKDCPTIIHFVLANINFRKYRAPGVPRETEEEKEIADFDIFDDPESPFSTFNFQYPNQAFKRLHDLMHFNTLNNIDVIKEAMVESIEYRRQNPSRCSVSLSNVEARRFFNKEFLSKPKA

| Compound | melting point | IC50 (cPLA2) |
| --- | --- | --- |
| 4-[2-(1-benzhydryl-5-chloro-2-{2-[({2-[(3R,5S)-3,5-dimethylmorpholin4-yl]ethyl}sulfonyl)amino]ethyl}-1H-indol-3-yl)ethoxy]benzoic acid [Example 250] |  | 2.1 µM |
| 4-{2-[1-benzhydryl-5-chloro-2-(2-{[(2,6-dimethylbenzyl)sulfonyl]amino}ethyl)-1H-indol-3-yl]ethoxy}benzoic acid [Example 279] |  | 0.16 µM |
| O=C(O)c1ccc(OCCc2c(CCNS(=O)(=O)c3cccc(F)c3)n(C(c3ccccc3)c3ccccc3)c3ccc(Cl)cc23)cc1 [Example 223] |  | 0.6 µM |
| O=C(O)c1ccc(OCCc2c(CCNS(=O)(=O)c3c(F)cccc3F)n(C(c3ccccc3)c3ccccc3)c3ccc(Cl)cc23)cc1 [Example 225, 4-{2-[1-benzhydryl-5-chloro-2-(2-{[(2,6-fluorophenyl)sulfonyl]amino}ethyl)-1H-indol-3-yl]ethoxy}benzoic acid] |  | 0.4 µM |
| O=C(O)c1cccc(OCCc2c(CCNS(=O)(=O)Cc3ccc(Cl)c(Cl)c3)n(C(c3ccccc3)c3ccccc3)c3ccc(Cl)cc23)c1 [Example 284, 3-(2-(1-benzhydryl-5-chloro-2-(2-((3,4-dichlorophenyl)methylsulfonamido)ethyl)-1H-indol-3-yl)ethoxy) benzoic acid] |  | 0.4 µM |
| O=C(O)c1ccc(OCCc2c(CCNS(=O)(=O)Cc3ccccc3Cl)n(C(c3ccccc3)c3ccccc3)c3ccc(Cl)cc23)cc1F [Example 297, 4-{2-[1-benzhydryl-5-chloro-2-(2-{[(2-chlorobenzyl)sulfonyl]amino}ethyl)-1H-indol-3-yl]ethoxy}-2-fluorobenzoic acid] | 132 to 135 °C |  |

More lines, main results first:

| melting point | Compound | IC50 (cPLA2) |
| --- | --- | --- |
| 117 to 119 °C | O=C(O)c1ccc(OCCc2c(CCNS(=O)(=O)Cc3ccc(Cl)c(Cl)c3)n(C(c3ccccc3)c3ccccc3)c3ccc(Cl)cc23)cc1F [Example 296, 4-{2-[1-benzhydryl-5-chloro-2-(2-{[(3,4-dichlorobenzyl)sulfonyl]amino}ethyl)-1H-indol-3-yl]ethoxy}-2-fluorobenzoic acid] |  |
| 207 to 208 °C | CC(C)(Cc1ccc(S(=O)(=O)CCc2c(CCNS(=O)(=O)Cc3ccc(Cl)c(Cl)c3)n(C(c3ccccc3)c3ccccc3)c3ccc(Cl)cc23)cc1)C(=O)O [Example 298, 3-[4-({2-[1-benzhydryl-5-chloro-2-(2-{[(3,4-dichlorobenzyl)sulfonyl]amino}ethyl)-1H-indol-3-yl]ethyl}sulfonyl)phenyl]-2,2-dimethylpropanoic acid] |  |
